Results from patent US20190022225A1, “PROTOCOL FOR INCREASING LIFE EXPECTANCY IN A TEST SUBJECT” (Mayo Foundation for Medical Education and Research, priority 2015, published 2019).

Legend:
[1] = test system: LDLR−/−/3MR double transgenic mice; assay: Atherosclerosis model, LDLR-/-/3MR mice, 100 day ganciclovir treatment period; format: in vivo, mouse
Description: The impact of clearance of senescent cells on the stability and size of mature atherosclerotic plaques was studied in LDLR^−/− MR double transgenic mice. From 10 weeks of age, LDLR^−/− MR double transgenic mice (10 weeks) and LDLR^−/− single transgenic mice (control) were fed a high fat diet (Harlan Teklad TD.88137) having 42% calories from fat beginning at Week 0 until Week 12.5, when the mice were switched to normal chow diet. Both groups of mice were treated with ganciclovir from week 12.5 over the next 100 days, with each treatment cycle comprising 5 days of ganciclovir (25 mg/kg intraperitoneally daily) and 14 days off. At the end of the 100 day treatment period, the mice were sacrificed, plasma and tissues were collected, and atherosclerosis was quantitated. Descending aortas were dissected and stained with Sudan IV to visualize the plaque lipids. […] Plaques from ganciclovir-treated LDLR^−/− control and LDLR^−/− MR mice (see dashed circled plaques in FIGS. 55A-B, respectively) were harvested and cut into cross-sections and stained with […] the general architecture of the atherosclerotic plaques. “#” indicates fat located on the outside of the aorta (see FIG. 55A). The plaques marked with an “*” and “*” in FIGS. 55A and B, respectively, are shown as stained cross-sections in FIGS. 55B and D, respectively. […] The plaque from the control mice has identifiable “lipid pockets” accumulating within. […] Disruption or tear in the cap of a lipid-rich plaque is a trigger for coronary events through exposure of plaque thrombogenic components to platelets and clotting components of the blood. Plaques that grow more rapidly as a result of rapid lipid deposition and have thin fibrin caps are prone to rupture. Slowly growing plaques with mature fibrin caps tend to stabilize and are not prone to rupture. Taken together, these experiments indicate that removal of senescent cells may affect atherosclerotic plaque architecture and have a stabilizing effect.

[2] = test system: paclitaxel treated p16-3MR mice; assay: Chemotherapy related side effects: voluntary exercise (wheel counts) after paclitaxel in p16-3MR mice; format: in vivo, mouse; settings: ABT-263 100 mg/kg ip daily 7 days; ganciclovir 25 mg/kg ip daily 3 days
Description: ABT-263 (100 mg/kg) was administered intraperitoneally daily for seven days after paclitaxel administration. Two days after the last dose of ABT-263, all groups of animals were housed in metabolic cages (promethion, sable systems international, Las Vegas, Nev.) to monitor voluntary exercise as determined by wheel counts. Data were collected and analyzed two days later. Clearance of senescent cells by ABT-263 and ganciclovir restored approximately 70% of wheel count reduction caused by chemotherapy treatment.

[3] = test system: p16-3MR mice fed a high fat diet; assay: Glucose tolerance, insulin tolerance and body parameters in high fat fed p16-3MR mice; format: in vivo, mouse
Description: Groups of p16-3MR mice (n=9) were fed a high fat diet for four months mice or a regular chow diet. Animals were then treated with ganciclovir (3 rounds of 25 mg/kg ganciclovir administered daily for five consecutive days) or vehicle. A glucose bolus was given at time zero, and blood glucose was monitored at 20, 30, 60, and 120 minutes after delivering glucose to determine glucose disposal (see FIG. 69A). […] Insulin sensitivity was also determined (Insulin Tolerance Testing (ITT)). […] Changes in weight, body composition, and food intake were also monitored.

[4] = test system: senescent foreskin fibroblasts (HCA2 and BJ), lung fibroblasts (IMR90); assay: Cell count survival assay of Nutlin-3a on irradiation-induced senescent fibroblasts; format: cell-based, human; settings: 10 Gy irradiated HCA2, BJ, Nutlin-3a 0, 2.5, 10 μM for 9 days
Description: (§1) Foreskin fibroblast cell lines HCA2 and BJ, lung fibroblast cell line IMR90, and mouse embryonic fibroblasts were seeded in six-well plates and induced to senesce with 10 Gy of ionizing radiation (IR) or a 24 hr treatment with doxorubicin (Doxo). Senescent phenotype was allowed to develop for at least 7 days, at which point a cell count was made to determine the baseline number of cells. Nutlin-3a treatment was then initiated for a period of at least 9 days. Media alone or media with drug as appropriate was refreshed at least every three days. At the end of the assay time period, cells are counted. Each condition was seeded in three plate wells and counted independently. Initial cell count serves as a control to determine the induction of senescence, as compared to the last day count without nutlin treatment. Initial non-senescent cell count serves as a proxy to determine Nutlin-3a toxicity.
(§2) Foreskin fibroblast cell lines HCA2 and BJ, lung fibroblast cell line IMR90, and mouse embryonic fibroblasts were exposed to 10 Gy of ionizing radiation (IR) to induce senescence. […] Percent survival was calculated as [cell count on day 9 of Nutlin-3a treatment/initial cell count on first day of Nutlin-3a treatment].

[5] = test system: senescent mouse embryonic fibroblasts (MEF); assay: Cell count survival assay of Nutlin-3a on irradiation-induced senescent MEFs; format: cell-based; settings: 10 Gy irradiated MEF; Nutlin-3a 0, 2.5, 10 μM for 9 days
Description: as §1, §2

[6] = test system: doxorubicin-induced senescent foreskin fibroblasts (HCA2) and aortic endothelial cells (Endo Aort); assay: Cell count survival assay of Nutlin-3a on doxorubicin-induced senescent cells; format: cell-based; settings: doxorubicin 250 nM 24 h; HCA2 9 days, aortic endothelial cells 11 days of Nutlin-3a
Description: as §1
Foreskin fibroblasts (HCA2) and aortic endothelial cells (Endo Aort) were treated with doxorubicin (250 nM) for one day (24 hours) to induce senescence (see FIG. 1). Eight days following doxorubicin treatment, Nutlin-3a treatment was initiated. HCA2 cells were exposed to Nutlin-3a for 9 days, and aortic endothelial cells were exposed to Nutlin-3a for 11 days. […] Percent survival was calculated as [cell count on the last day of Nutlin-3a treatment/initial cell count on first day of Nutlin-3a treatment].

[7] = test system: p21, p16, IL-1a, CXCL-1, IL-6, IL-8 expression in senescent IMR90 cells; assay: qPCR of senescence markers and SASP factors in irradiated senescent IMR90 cells treated with Nutlin-3a; format: cell-based, human
Description: Primary human fibroblast (IMR90) cells were induced to senesce by applying 10 Gy of irradiation. Seven days after irradiation (Day 0), cells were treated with 10 μM Nutlin-3a or vehicle (DMSO) for nine days (Day 9). The drug or vehicle was refreshed every three days. Drug/vehicle was removed at Day 9 and the cells were cultured for an additional three days (Day 12) in media without drug or DMSO. Cells were then collected, mRNA extracted, and cDNA prepared. Quantitative PCR (qPCR) was then performed to detect expression of various genes. Cells were also collected at Day 12 after drug/vehicle had been removed for three days. The data are presented as an average of three samples. Data were normalized to actin and depicted as a ratio to non-senescent cells.

SMILES	% of the aorta covered in plaques ([1]; area of Sudan IV staining, versus LDLR−/− control mice)	atherosclerotic plaques in descending aorta (Sudan IV staining) ([1]; cycles of 5 days 25 mg/kg ip daily, 14 days off, 100 days)	plaque morphology ([1]; stained cross-sections)	restoration of wheel count reduction caused by chemotherapy treatment [2]	insulin tolerance testing: decrease in blood glucose ([3]; 0, 14, 30, 60 and 120 minutes)	glucose tolerance test AUC versus vehicle ([3]; 3 rounds of 25 mg/kg daily for five days)	Hemoglobin A1c ([3]; high fat diet)	body weight, body composition (percent of fat), food intake ([3]; mouse, in vivo)	cell survival of senescent fibroblasts (percent survival) [4]	cell survival of senescent MEF (percent survival) [5]	sensitivity of doxorubicin-induced senescent cells (percent survival) [6]	level of p21 mRNA, ratio to non-senescent cells ([7]; 10 μM, day 9)	level of IL-1a mRNA ([7]; 10 μM, day 9 and day 12)	levels of CXCL-1, IL-6 and IL-8 mRNA ([7]; 10 μM, day 9 and day 12)	level of p16 mRNA ([7]; 10 μM, drug present (day 9))	level of p16 mRNA ([7]; day 12, three days after drug removal)
Nc1nc(O)c2ncn(COC(CO)CO)c2n1 [ganciclovir]	significantly lower	fewer atherosclerotic plaques with less intense staining	presence of a thick fibrin cap and the absence of lipid pockets	approximately 70%	greater decrease in blood glucose	significantly lower	lower	did not alter								
COc1ccc(C2=N[C@@H](c3ccc(Cl)cc3)[C@@H](c3ccc(Cl)cc3)N2C(=O)N2CCNC(=O)C2)c(OC(C)C)c1 [Nutlin-3a]									reduced cell survival	reduced cell survival	sensitive	approximately 90 fold	decreased only after Nutlin-3a had been removed	reduced when Nutlin-3a was present and remained lower after drug removal	did not change	decrease
